Reference: US4471116A, “Substituted (10H-phenothiazin-10-L)-propyl-1-piperazines” (Hoffmann-La Roche Inc., priority 1982, dated 1984)
Where a name gives a salt, the structure may show the parent alone. Read-outs that look alike come from different tables or passages of the source.

How the values were obtained:
[1] = tested on: avoidance behavior; experiment: Discrete Avoidance - Rats (avoidance block / escape block); assay type: in vivo, rat; conditions: for inhibition in vivo at 40 mg/kg / inhibition in vivo at 25 mg/kg: Rattus norvegicus
Excerpt: For example, by one procedure, trained rats are placed in experimental chambers equipped with a response lever, a steel grid floor for delivery of electric shock and a loudspeaker for presentation of auditory stimuli. […] The rats can terminate a trial at any point by depression of the response lever. A response during the initial fifteen-second warning tone ends the trial before shock delivery and is considered an avoidance response, while a response occurring during shock delivery is an escape response. Trials are presented every two minutes during a one-hour test session (30 trials per session). […] Compounds are administered to a minimum of three to four rats at each dose level over a range of doses. Rats receive vehicle alone, during control sessions prior to drug administration. Each rat is tested daily or weekly, after a single drug administration, until avoidance behavior returns to pre-drug baseline levels. The session is divided into three consecutive twenty minute (ten trial) segments. Response counts are summed over all subjects at a given dose within each segment. […] This number is expressed as a percentage of the total trials within the segment. […] The lowest dose which produced a 20% block of escape responding (EBD 20) is read from a graphic dose-effect plot. In obtaining these values, percent effect is plotted against the log dose.

[2] = tested on: Dopamine Turnover-Brain Caudate; experiment: Dopamine Turnover-Brain, Caudate; assay type: in vivo; conditions: Rat, 1 mg/kg IP, 1 Hour Post-Drug
[3] = tested on: Continuous Avoidance; experiment: Continuous Avoidance (Squirrel Monkeys); assay type: in vivo, squirrel monkey; conditions: Primates; Squirrel Monkey, PO, 1 Hour Post-Drug; read-out: Continuous Avoidance MED Shocks
[4] = tested on: Amphetamine Induced Rotation; experiment: Amphetamine Induced Rotation antagonism (S. Nigra Lesioned Rats) / Rotation Antagonism; assay type: in vivo, rat; conditions: Rat, PO, 1 Hour Post-Drug
[5] = tested on: Apomorphine Induced Emesis; experiment: Apomorphine Induced Emesis antagonism (Dogs); assay type: in vivo, dog; conditions: Canis lupus familiaris; Dog, SC, 1 Hour Post-Drug; read-out: Anti-Apomorphine Emesis ED50
[6] = tested on: Dopamine Turnover-Brain Limbic and Remainder; experiment: Dopamine Turnover-Brain, Limbic and Remainder; assay type: in vivo; conditions: Rat, 1 mg/kg IP, 1 Hour Post-Drug
[7] = tested on: Confinement Motor Activity; experiment: Confinement Motor Activity; assay type: in vivo; conditions: Rat, PO, 1 Hour Post-Drug; read-out: Confinement Motor Activity DD50
[8] = 1 h, 40 mg/kg po, 60 min. post-drug, read-out: Percentage Block of Avoidance, 60 min. post-drug
[9] = 40 mg/kg po, 24 hrs. post-drug, read-out: Percentage Block of Avoidance, 24 hrs. post-drug
[10] = 40 mg/kg po, at the indicated duration, read-out: Avoidance block at Duration of Sig. Activity (AB)
[11] = 40 mg/kg po, at time of peak effect, read-out: Avoidance block at Time of Peak Effect (AB)

## CC(C)NCCCCCOc1ccc(OCCN2CCN(CCCN3c4ccccc4Sc4ccc(Cl)cc43)CC2)cc1 [1-[3-(2-chloro-10H--phenothiazin-10-yl)propyl]-4-[2-[4-[5-(1-methylethyl)aminopentoxy]phenoxy]ethyl]piperazine trimaleate]
[1]; 40 mg/kg po
  Duration of Sig. Activity: 2 weeks
  Time of Peak Effect: 1 days
[1]; [8]
  inhibition in vivo at 40 mg/kg: 10%
[1]; [9]
  inhibition in vivo at 40 mg/kg: 97%
[1]; [10]
  inhibition in vivo at 40 mg/kg: 23%
[1]; [11]
  inhibition in vivo at 40 mg/kg: 97%

## CC(C)NCCCCCCOc1ccc(OCCN2CCN(CCCN3c4ccccc4Sc4ccc(Cl)cc43)CC2)cc1 [1-[3-(2-chloro-10H-phenothiazin-10-yl)]-4-[2-[4-[6-(1-methylethyl)aminohexyloxy]phenoxy]ethyl]piperazine trihydrochloride]
[1]; 40 mg/kg po
  Duration of Sig. Activity: 1 weeks
  Time of Peak Effect: 1 days
[1]; [8]
  inhibition in vivo at 40 mg/kg: 23%
[1]; [9]
  inhibition in vivo at 40 mg/kg: 40%
[1]; [10]
  inhibition in vivo at 40 mg/kg: 30%
[1]; [11]
  inhibition in vivo at 40 mg/kg: 40%

## CC(C)NCCCOc1ccc(OCCN2CCN(CCCN3c4ccccc4Sc4ccc(Cl)cc43)CC2)cc1 [1-[3-(2-chloro-10H-phenothiazin-10-yl)propyl]-4-2-[4-[3-(1-methylethyl)aminopropoxy]phenoxy]ethyl]piperazine trihydrochloride]
[1]; 40 mg/kg po
  Duration of Sig. Activity: 5 weeks
  Time of Peak Effect: 1 days
[1]; [8]
  inhibition in vivo at 40 mg/kg: 10%
[1]; [9]
  inhibition in vivo at 40 mg/kg: 97%
[1]; [10]
  inhibition in vivo at 40 mg/kg: 50%
[1]; [11]
  inhibition in vivo at 40 mg/kg: 97%

## CC(C)NCCOc1ccc(OCCN2CCN(CCCN3c4ccccc4Sc4ccc(Cl)cc43)CC2)cc1.Cl.Cl.Cl [1-[3-(2-chloro-10H-phenothiazin-10-yl)propyl]-4-[2-[4-[2-(1-methylethyl)aminoethoxy]phenoxy]ethyl]piperazine trihydrochloride]
[1]; 40 mg/kg po
  Duration of Sig. Activity: 8 weeks
  Time of Peak Effect: 1 days
[1]; [8]
  inhibition in vivo at 40 mg/kg: 10%
[1]; [9]
  inhibition in vivo at 40 mg/kg: 100%
[1]; [10]
  inhibition in vivo at 40 mg/kg: 37%
[1]; [11]
  inhibition in vivo at 40 mg/kg: 100%

## CC(C)NCCc1ccc(OCCN2CCN(CCCN3c4ccccc4Sc4ccc(Cl)cc43)CC2)cc1.O=C(O)/C=C\C(=O)O.O=C(O)/C=C\C(=O)O.O=C(O)/C=C\C(=O)O [1-[3-(2-chloro-10H-phenothiazin-10-yl)propyl]-4-[2-[4-[2-(1-methylethyl)aminoethyl]phenoxy]ethyl]piperazine trimaleate]
[1]; 40 mg/kg po
  Duration of Sig. Activity: 5 weeks
  Time of Peak Effect: 1 days
[1]; [8]
  inhibition in vivo at 40 mg/kg: 10%
[1]; [9]
  inhibition in vivo at 40 mg/kg: 100%
[1]; [10]
  inhibition in vivo at 40 mg/kg: 80%
[1]; [11]
  inhibition in vivo at 40 mg/kg: 100%

## CC(C)NCCCc1ccc(OCCN2CCN(CCCN3c4ccccc4Sc4ccc(Cl)cc43)CC2)cc1.Cl.Cl.Cl [1-[3-(2-chloro-10H-phenothiazin-10-yl)propyl]-4-[2-[4-[3-(1-methylethyl)aminopropyl]phenoxy]ethyl]piperazine trihydrochloride]
[1]; 40 mg/kg po
  Duration of Sig. Activity: 5 weeks
  Time of Peak Effect: 1 days
[1]; [8]
  inhibition in vivo at 40 mg/kg: 45%
[1]; [9]
  inhibition in vivo at 40 mg/kg: 100%
[1]; [10]
  inhibition in vivo at 40 mg/kg: 55%
[1]; [11]
  inhibition in vivo at 40 mg/kg: 100%

## CC(C)NCCCCOc1ccc(OCCN2CCN(CCCN3c4ccccc4Sc4ccc(Cl)cc43)CC2)cc1.Cl.Cl.Cl [1-[3-(2-chloro-10H-phenothiazin-10-yl)propyl]-4-[2-[4-[4-(1-methylethyl)aminobutoxy]phenoxy]ethyl]piperazine trihydrochloride]
[1]; 40 mg/kg po
  Duration of Sig. Activity: 5 weeks
  Time of Peak Effect: 3 to 10 days
[1]; [8]
  inhibition in vivo at 40 mg/kg: 20%
[1]; [9]
  inhibition in vivo at 40 mg/kg: 33%
[1]; [10]
  inhibition in vivo at 40 mg/kg: 30%
[1]; [11]
  inhibition in vivo at 40 mg/kg: 97 to 100%

## CC(C)NCCCCc1ccc(OCCN2CCN(CCCN3c4ccccc4Sc4ccc(Cl)cc43)CC2)cc1 [1-[3-(2-chloro-10H-phenothiazin-10-yl)propyl]-4-[2-[4-[4-(1-methylethyl)aminobutyl]phenoxy]ethyl]piperazine]
[1]; 40 mg/kg po
  Duration of Sig. Activity: 51/2
  Time of Peak Effect: 1 days
[1]; [8]
  inhibition in vivo at 40 mg/kg: 17%
[1]; [9]
  inhibition in vivo at 40 mg/kg: 100%
[1]; [10]
  inhibition in vivo at 40 mg/kg: 55%
[1]; [11]
  inhibition in vivo at 40 mg/kg: 100%

## CSc1ccc2c(c1)N(CCCN1CCN(CCOc3ccc(OCCCCCNC(C)C)cc3)CC1)c1ccccc1S2.O=C(O)/C=C\C(=O)O.O=C(O)/C=C\C(=O)O.O=C(O)/C=C\C(=O)O [1-[3-(2-methylthio-10H-phenothiazin-10-yl)propyl]-4-[2-[4-[5-(1-methylethyl)aminopentoxy]phenoxy]ethyl]piperazine trimaleate]
[1]; 40 mg/kg po
  Duration of Sig. Activity: 3 days
  Time of Peak Effect: 0.0417 days
[1]; [8]
  inhibition in vivo at 40 mg/kg: 60%
[1]; [9]
  inhibition in vivo at 40 mg/kg: 45%
[1]; [10]
  inhibition in vivo at 40 mg/kg: 35%
[1]; [11]
  inhibition in vivo at 40 mg/kg: 60%

## CN(C)CCCOc1ccc(OCCN2CCN(CCCN3c4ccccc4Sc4ccc(Cl)cc43)CC2)cc1.Cl.Cl.Cl [3-[[4-[2-[4-[3-(2-chloro-10H-phenothiazin-10-yl)propyl]-1-piperazinyl]ethoxy]phenyl]oxy]-N,N-dimethylpropanamine trihydrochloride]
[1]; 40 mg/kg po
  Duration of Sig. Activity: > 6 weeks
  Time of Peak Effect: 1 days
[1]; [8]
  inhibition in vivo at 40 mg/kg: 50%
[1]; [9]
  inhibition in vivo at 40 mg/kg: 100%
[1]; [10]
  inhibition in vivo at 40 mg/kg: 25%
[1]; [11]
  inhibition in vivo at 40 mg/kg: 100%

## CNCCCOc1ccc(OCCN2CCN(CCCN3c4ccccc4Sc4ccc(Cl)cc43)CC2)cc1.Cl.Cl.Cl [3-[[4-[2-[4-[3-(2-chloro-10H-phenothiazin-10-yl)propyl]-1-piperazinyl]ethoxy]phenyl]oxy]-N-methylpropanamine trihydrochloride]
[1]; 40 mg/kg po
  Duration of Sig. Activity: 5 weeks
  Time of Peak Effect: 1 days
[1]; [8]
  inhibition in vivo at 40 mg/kg: 65%
[1]; [9]
  inhibition in vivo at 40 mg/kg: 100%
[1]; [10]
  inhibition in vivo at 40 mg/kg: 25%
[1]; [11]
  inhibition in vivo at 40 mg/kg: 100%

## Cl.Cl.Cl.NCCCOc1ccc(OCCN2CCN(CCCN3c4ccccc4Sc4ccc(Cl)cc43)CC2)cc1 [3-[[4-[2-[4-[3-(2-chloro-10H-phenothiazin-10-yl)propyl]-1-piperazinyl]ethoxy]phenyl]oxy]propanamine trihydrochloride]
[1]; 40 mg/kg po
  Duration of Sig. Activity: 51/2
  Time of Peak Effect: 3 days
[1]; [8]
  inhibition in vivo at 40 mg/kg: 40%
[1]; [9]
  inhibition in vivo at 40 mg/kg: 73%
[1]; [10]
  inhibition in vivo at 40 mg/kg: 27%
[1]; [11]
  inhibition in vivo at 40 mg/kg: 90%

## CC(C)NC[C@@H](O)COc1ccc(OCCN2CCN(CCCN3c4ccccc4Sc4ccc(Cl)cc43)CC2)cc1.Cl.Cl.Cl [(R)-1-(1-methylethylamino)-3-[4-[2-[4-[3-(2-chloro-10H-phenothiazin-10-yl)propyl]piperazin-1-yl]ethoxy]phenoxy]-2-propanol, trihydrochloride]
[1]; 40 mg/kg po
  Duration of Sig. Activity: 3 weeks
  Time of Peak Effect: 10 days
[1]; [8]
  inhibition in vivo at 40 mg/kg: 20%
[1]; [9]
  inhibition in vivo at 40 mg/kg: 27%
[1]; [10]
  inhibition in vivo at 40 mg/kg: 27%
[1]; [11]
  inhibition in vivo at 40 mg/kg: 37%

## CC(C)NC[C@H](O)COc1ccc(OCCN2CCN(CCCN3c4ccccc4Sc4ccc(C(F)(F)F)cc43)CC2)cc1 [(S)-1-(1-methylethylamino)-3-[4-[2-[4-[3-(2-trifluoromethyl)-10H-phenothiazin-10-yl)propyl]piperazin-1-yl]ethoxy]phenoxy]-2-propanol trihydrochloride]
[1]; 25 mg/kg po
  Duration of Sig. Activity: 61/2
  Time of Peak Effect: 3 to 10 days
[1]; 1 h, 25 mg/kg po, 60 min. post-drug, read-out: Percentage Block of Avoidance, 60 min. post-drug
  inhibition in vivo at 25 mg/kg: 33%
[1]; 25 mg/kg po, 24 hrs. post-drug, read-out: Percentage Block of Avoidance, 24 hrs. post-drug
  inhibition in vivo at 25 mg/kg: 57%
[1]; 25 mg/kg po, at the indicated duration, read-out: Avoidance block at Duration of Sig. Activity (AB)
  inhibition in vivo at 25 mg/kg: 37%
[1]; 25 mg/kg po, at time of peak effect, read-out: Avoidance block at Time of Peak Effect (AB)
  inhibition in vivo at 25 mg/kg: 77 to 87%

## O=C(CCCN1CCC(O)(c2ccc(Cl)cc2)CC1)c1ccc(F)cc1 [Haloperidol, haloperidol, reference compound]
[2]
  Dopamine Turnover-Brain, Caudate: Signif. .uparw.
[1]; Rat, PO, 1 Hour Post-Drug, read-out: Discrete Avoidance ABD50
  ED50: 0.35 mg/kg
[3]
  minimal effective dose: 0.28 mg/kg
[4]
  ED50: 0.35 mg/kg
[5]
  ED50: 0.02 mg/kg
[6]
  Dopamine Turnover-Brain, Limbic and Remainder: Signif. .uparw.
[7]
  ED50: 0.4 mg/kg
